The values that follow come from ChEMBL document CHEMBL3046490, “Evaluation of fungicides to control circular leaf spot of persimmon caused by Mycosphaerella nawae” (Crop Prot, 2011).

Type in all cases: functional, organism-based
Experiment [1] deals with Plurivorosphaerella nawae. Put plainly: Antifungal activity against circular leaf spot causing Mycosphaerella nawae MY1 assessed as inhibition of mycelial growth on potato dextrose agar.
The subject of experiment [2] is Plurivorosphaerella nawae. Briefly: Antifungal activity against circular leaf spot causing Mycosphaerella nawae MY5 assessed as inhibition of mycelial growth on potato dextrose agar.
For a further experiment, the system named is Monilinia fructicola. Briefly: Antifungal activity against Monilinia fructicola isolated from peach fields assessed as mycelial growth inhibition.
For a further experiment, the system named is Zasmidium citrigriseum. Briefly: Antifungal activity against citrus greasy spot disease caused by Zasmidium citri assessed as inhibition of mycelial growth on potato dextrose agar.

Values after ≈ are worked out from the molar mass of the structure shown.

`O=C1C2CC=CCC2C(=O)N1SC(Cl)(Cl)Cl` (stereo not given) [CAPTAN]: the EC50 in experiment [1] and in experiment [2] was over 100 mg/L in each case.

Take `N#Cc1c(Cl)c(Cl)c(Cl)c(C#N)c1Cl` [CHLOROTHALONIL]: the figures for the EC50 in experiment [1] and in experiment [2] were 33.5 mg/L (≈ 126 µM) and 17 mg/L (≈ 63.9 µM), respectively.

Consider `Cc1cc(C2CC2)nc(Nc2ccccc2)n1` [CYPRODINIL], for which the EC50 in experiment [1] was 76.8 mg/L (≈ 341 µM); in experiment [2] it was 52.4 mg/L (≈ 233 µM).

Regarding `CC(Cc1ccc(C(C)(C)C)cc1)CN1C[C@@H](C)O[C@@H](C)C1` (stereo not given in full) [FENPROPIMORPH], the results for the EC50 in experiment [1] and in experiment [2] were 0.2 mg/L (≈ 0.659 µM) and 0.4 mg/L (≈ 1.32 µM), respectively.

For `O=[N+]([O-])c1cc(C(F)(F)F)c(Cl)c([N+](=O)[O-])c1Nc1ncc(C(F)(F)F)cc1Cl` [FLUAZINAM], the EC50 was 24 mg/L (≈ 51.6 µM) in experiment [1] and 50.6 mg/L (≈ 109 µM) in experiment [2].

As for `COC(=O)N(OC)c1ccccc1COc1ccn(-c2ccc(Cl)cc2)n1` [PYRACLOSTROBIN], the EC50 in the experiment with Monilinia fructicola came to 0.04 ppm; in experiment [1], 1.6 mg/L (≈ 4.13 µM); in experiment [2], 1.9 mg/L (≈ 4.9 µM); in the experiment with Zasmidium citrigriseum, 0.03 ppm.

Regarding `CC(C)(C)C(O)(CCc1ccc(Cl)cc1)Cn1cncn1` (stereo not given) [TEBUCONAZOLE], the EC50 in experiment [1] amounted to 1.3 mg/L (≈ 4.22 µM); in experiment [2], 0.7 mg/L (≈ 2.27 µM).

Consider `COC(=O)NC(=S)Nc1ccccc1NC(=S)NC(=O)OC` [THIOPHANATE METHYL], for which the values for the EC50 in experiment [1] and in experiment [2] were 1.5 mg/L (≈ 4.38 µM) and 1.7 mg/L (≈ 4.96 µM), respectively.

Turning to `CN(C)C(=S)SSC(=S)N(C)C` [THIRAM], the EC50 in experiment [1] is 13.8 mg/L (≈ 57.4 µM); in experiment [2] it was 26.8 mg/L (≈ 111 µM).
